Data on 4 molecules can be found in ChEMBL document CHEMBL5212743, “Selectivity Literature for EUbOPEN Chemogenomics Library wave 3” (2023).

Where only a bound is given, the exact number is not on record here.

In test [1] the target is Sodium-dependent dopamine transporter (Homo sapiens, UniProt Q01959). Nature of the test: Selectivity interaction (CEREP panel (Eurofins, radioligand binding assay, enzymes, GPCRS, transporters, and ion channels)) EUB0000308b SLC6A3. To be noted: at 10 µM.
Test [2] deals with Melatonin receptor type 1A (Homo sapiens) (UniProt P48039). The test can be described thus: Selectivity interaction (CEREP panel (Eurofins, radioligand binding assay, enzymes, GPCRS, transporters, and ion channels)) EUB0000308b MTNR1A. To be noted: at 10 µM.
Test [3] addresses Sigma non-opioid intracellular receptor 1 (Homo sapiens, UniProt Q99720). Nature of the test: Selectivity interaction (GPCR panel (PDSP screen)) EUB0000308b SIGMAR1.
Test [4] concerns the target T1, Serine/threonine-protein kinase ULK2 (Homo sapiens) (UniProt Q8IYT8).
T1 sequence (whole entry): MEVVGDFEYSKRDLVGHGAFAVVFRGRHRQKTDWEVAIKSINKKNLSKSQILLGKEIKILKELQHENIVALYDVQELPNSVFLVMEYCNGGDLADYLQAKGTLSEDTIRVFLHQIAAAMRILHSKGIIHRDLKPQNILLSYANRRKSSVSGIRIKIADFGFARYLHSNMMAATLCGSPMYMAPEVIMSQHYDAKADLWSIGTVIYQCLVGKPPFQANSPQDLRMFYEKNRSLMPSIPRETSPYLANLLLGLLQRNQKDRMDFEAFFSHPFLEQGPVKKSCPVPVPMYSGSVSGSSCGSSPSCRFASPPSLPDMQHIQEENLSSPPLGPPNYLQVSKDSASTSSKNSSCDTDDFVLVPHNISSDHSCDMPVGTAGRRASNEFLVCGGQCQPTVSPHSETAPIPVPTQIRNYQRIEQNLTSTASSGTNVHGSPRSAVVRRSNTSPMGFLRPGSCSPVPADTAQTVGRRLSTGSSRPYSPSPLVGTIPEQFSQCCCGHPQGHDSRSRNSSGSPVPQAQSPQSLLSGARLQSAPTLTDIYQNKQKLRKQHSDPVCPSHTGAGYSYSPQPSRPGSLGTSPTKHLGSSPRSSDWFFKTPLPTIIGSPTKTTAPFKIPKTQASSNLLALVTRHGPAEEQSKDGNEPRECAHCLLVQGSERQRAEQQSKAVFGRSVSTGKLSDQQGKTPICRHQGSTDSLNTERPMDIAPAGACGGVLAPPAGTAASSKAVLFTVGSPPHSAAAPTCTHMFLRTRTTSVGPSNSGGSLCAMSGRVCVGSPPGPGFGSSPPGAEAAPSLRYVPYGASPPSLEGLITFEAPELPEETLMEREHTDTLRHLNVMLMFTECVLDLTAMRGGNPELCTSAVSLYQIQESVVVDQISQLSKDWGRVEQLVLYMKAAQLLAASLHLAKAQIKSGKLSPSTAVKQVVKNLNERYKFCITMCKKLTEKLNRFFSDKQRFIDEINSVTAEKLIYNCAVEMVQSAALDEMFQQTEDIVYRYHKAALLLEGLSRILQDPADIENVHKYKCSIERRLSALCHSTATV
Nature of the test: Selectivity interaction (KinomeScan (DiscoverX)) EUB0000308b ULK2. To be noted: at 1 µM.

Test [5] addresses Sodium-dependent noradrenaline transporter (Homo sapiens, UniProt P23975). Nature of the test: Selectivity interaction (CEREP panel (Eurofins, radioligand binding assay, enzymes, GPCRS, transporters, and ion channels)) EUB0000308b SLC6A2. Particulars: at 10 µM.
In test [6] the target is Mitogen-activated protein kinase 8 (Homo sapiens, UniProt P45983). The test can be described thus: Selectivity interaction (KinomeScan (DiscoverX, competition-binding assay)) EUB0000353a MAPK8.
Test [7] deals with Tyrosine-protein kinase BTK (Homo sapiens, UniProt Q06187). The test can be described thus: Selectivity interaction (KinomeScan (DiscoverX, competition-binding assay)) EUB0000353a BTK.
In test [8] the target is Mitogen-activated protein kinase 10 (Homo sapiens, UniProt P53779). Nature of the test: Selectivity interaction (KinomeScan (DiscoverX, competition-binding assay)) EUB0000353a MAPK10.
In test [9] the target is T2, Alpha-1A adrenergic receptor (Homo sapiens, UniProt P35348).
T2 sequence (P35348 whole entry): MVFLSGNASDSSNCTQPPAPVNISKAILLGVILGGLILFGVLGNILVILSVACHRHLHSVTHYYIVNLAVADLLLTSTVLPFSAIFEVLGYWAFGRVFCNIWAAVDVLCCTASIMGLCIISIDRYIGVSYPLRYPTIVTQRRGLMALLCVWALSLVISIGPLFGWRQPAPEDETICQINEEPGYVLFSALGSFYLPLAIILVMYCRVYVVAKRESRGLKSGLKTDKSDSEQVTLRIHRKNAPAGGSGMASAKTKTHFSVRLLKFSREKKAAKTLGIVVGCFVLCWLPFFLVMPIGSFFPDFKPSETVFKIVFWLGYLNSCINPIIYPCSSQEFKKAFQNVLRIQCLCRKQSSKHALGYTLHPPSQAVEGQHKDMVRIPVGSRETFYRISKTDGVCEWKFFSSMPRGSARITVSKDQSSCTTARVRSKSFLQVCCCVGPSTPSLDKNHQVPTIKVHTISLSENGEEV
The test can be described thus: Selectivity interaction (Binding assay) EUB0000341aCl ADRA1A.

Test [10] has as its target Dual specificity tyrosine-phosphorylation-regulated kinase 1B (Homo sapiens, UniProt Q9Y463). The test can be described thus: Selectivity interaction (KinomeScan (DiscoverX)) EUB0000341aCl DYRK1B. Particulars: at 1 µM.
Test [11] deals with NT-3 growth factor receptor (Homo sapiens, UniProt Q16288). Nature of the test: Selectivity interaction (KinomeScan (DiscoverX)) EUB0000341aCl NTRK3. Particulars: at 1 µM.
For test [12], the target named is Alpha-1D adrenergic receptor (Homo sapiens) (UniProt P25100). To be noted: at 10 µM.
The target in test [13] is T3, Alpha-1B adrenergic receptor (Homo sapiens, UniProt P35368).
T3 sequence (P35368 whole entry): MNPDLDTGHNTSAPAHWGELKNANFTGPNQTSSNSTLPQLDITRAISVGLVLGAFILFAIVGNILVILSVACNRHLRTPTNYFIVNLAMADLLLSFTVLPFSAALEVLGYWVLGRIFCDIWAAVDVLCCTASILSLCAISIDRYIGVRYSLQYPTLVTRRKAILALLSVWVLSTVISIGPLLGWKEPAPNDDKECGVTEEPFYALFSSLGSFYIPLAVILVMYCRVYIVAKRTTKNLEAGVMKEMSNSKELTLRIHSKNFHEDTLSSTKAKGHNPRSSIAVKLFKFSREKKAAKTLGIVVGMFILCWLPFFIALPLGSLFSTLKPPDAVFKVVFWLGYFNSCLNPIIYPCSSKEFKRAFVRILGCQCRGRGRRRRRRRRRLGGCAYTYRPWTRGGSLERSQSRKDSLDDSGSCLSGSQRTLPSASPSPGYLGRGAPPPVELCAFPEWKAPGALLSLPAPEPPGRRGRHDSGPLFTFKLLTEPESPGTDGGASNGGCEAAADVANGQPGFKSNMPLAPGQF
Nature of the test: Selectivity interaction (Binding assay) EUB0000341aCl ADRA1B.

Test [14] has as its system Tyrosine-protein kinase ABL1 (Homo sapiens), P00519 [F317L]. The test can be described thus: (§1) Selectivity interaction (KinomeScan (DiscoverX)) EUB0000341aCl ABL1. To be noted: at 1 µM.
In test [15] the test system is Tyrosine-protein kinase ABL1 (Homo sapiens), P00519 [T315I]. The description is as §1. Particulars: at 1 µM.
Test [16] deals with Tyrosine-protein kinase ABL1 (Homo sapiens), P00519 [M351T]. The description is as §1. Particulars: at 1 µM.
The target in test [17] is T4, Alpha-1A adrenergic receptor (Homo sapiens) (UniProt P35348).
T4 sequence (whole entry): T2 sequence (P35348 whole entry)
Particulars: at 10 µM.

Test [18] concerns the target Tyrosine-protein kinase receptor TYRO3 (Homo sapiens) (UniProt Q06418). The test can be described thus: Selectivity interaction (KinomeScan (DiscoverX)) EUB0000300bCl TYRO3. Particulars: at 1 µM.
Test [19] addresses Mitogen-activated protein kinase 6 (Homo sapiens) (UniProt Q16659). Nature of the test: Selectivity interaction (KinomeScan (DiscoverX)) EUB0000300bCl MAPK6. Particulars: at 1 µM.
Test [20] has as its target T3, Alpha-1B adrenergic receptor. The test can be described thus: Selectivity interaction (GPCR panel (PDSP screen)) EUB0000300bCl ADRA1B.
Test [21] has as its target T5, Alpha-2B adrenergic receptor (Homo sapiens) (UniProt P18089).
T5 sequence (whole entry): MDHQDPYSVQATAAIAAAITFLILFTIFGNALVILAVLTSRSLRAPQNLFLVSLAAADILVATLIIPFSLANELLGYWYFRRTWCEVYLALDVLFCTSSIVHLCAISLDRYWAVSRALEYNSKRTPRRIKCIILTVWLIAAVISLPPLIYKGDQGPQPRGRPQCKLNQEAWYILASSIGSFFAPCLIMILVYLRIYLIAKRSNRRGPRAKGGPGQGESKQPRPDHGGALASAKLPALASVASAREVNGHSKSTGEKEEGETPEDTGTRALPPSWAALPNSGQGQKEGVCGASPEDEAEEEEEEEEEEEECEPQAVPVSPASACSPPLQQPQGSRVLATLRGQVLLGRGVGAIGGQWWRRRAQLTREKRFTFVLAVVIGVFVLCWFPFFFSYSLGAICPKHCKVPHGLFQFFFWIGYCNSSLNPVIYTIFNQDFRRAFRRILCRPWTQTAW
The test can be described thus: Selectivity interaction (GPCR panel (PDSP screen)) EUB0000300bCl ADRA2B. To be noted: at 10 µM.

Test [22] has as its target T4, Alpha-1A adrenergic receptor (Homo sapiens). Nature of the test: (§2) Selectivity interaction (GPCR panel (PDSP screen)) EUB0000300bCl ADRA1A. Particulars: at 10 µM.
Test [23] concerns the target T2, Alpha-1A adrenergic receptor. Described as §2.

Mitogen-activated protein kinase 8, sequence (P45983 whole entry): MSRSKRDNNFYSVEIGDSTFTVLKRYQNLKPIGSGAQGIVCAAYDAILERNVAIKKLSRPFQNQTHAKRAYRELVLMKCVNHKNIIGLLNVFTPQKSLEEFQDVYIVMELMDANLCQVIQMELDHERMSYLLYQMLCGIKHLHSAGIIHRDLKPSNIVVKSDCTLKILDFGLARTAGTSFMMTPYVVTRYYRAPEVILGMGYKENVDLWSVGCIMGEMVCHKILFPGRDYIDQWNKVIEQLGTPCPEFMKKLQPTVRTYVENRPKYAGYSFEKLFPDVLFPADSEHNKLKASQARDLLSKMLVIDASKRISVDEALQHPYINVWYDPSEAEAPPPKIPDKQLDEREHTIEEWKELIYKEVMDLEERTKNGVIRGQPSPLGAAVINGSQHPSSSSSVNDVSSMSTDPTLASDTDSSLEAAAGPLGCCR
Sodium-dependent noradrenaline transporter, sequence (P23975 whole entry): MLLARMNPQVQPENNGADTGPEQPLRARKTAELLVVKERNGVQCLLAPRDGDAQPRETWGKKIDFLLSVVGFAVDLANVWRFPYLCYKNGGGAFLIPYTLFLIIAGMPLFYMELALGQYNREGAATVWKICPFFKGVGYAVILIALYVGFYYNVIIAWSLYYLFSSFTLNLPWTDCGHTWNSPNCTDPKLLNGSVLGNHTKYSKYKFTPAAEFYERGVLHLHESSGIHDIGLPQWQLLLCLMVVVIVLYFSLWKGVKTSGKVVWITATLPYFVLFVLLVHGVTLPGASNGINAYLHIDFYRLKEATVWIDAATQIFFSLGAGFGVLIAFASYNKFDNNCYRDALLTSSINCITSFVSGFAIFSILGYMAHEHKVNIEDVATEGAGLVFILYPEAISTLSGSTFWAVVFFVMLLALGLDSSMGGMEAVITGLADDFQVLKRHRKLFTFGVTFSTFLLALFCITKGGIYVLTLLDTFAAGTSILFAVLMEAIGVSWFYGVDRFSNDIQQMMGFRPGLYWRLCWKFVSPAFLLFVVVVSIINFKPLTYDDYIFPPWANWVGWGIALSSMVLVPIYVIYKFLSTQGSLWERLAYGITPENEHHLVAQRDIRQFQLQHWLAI
Dual specificity tyrosine-phosphorylation-regulated kinase 1B, sequence (Q9Y463 whole entry, looked up): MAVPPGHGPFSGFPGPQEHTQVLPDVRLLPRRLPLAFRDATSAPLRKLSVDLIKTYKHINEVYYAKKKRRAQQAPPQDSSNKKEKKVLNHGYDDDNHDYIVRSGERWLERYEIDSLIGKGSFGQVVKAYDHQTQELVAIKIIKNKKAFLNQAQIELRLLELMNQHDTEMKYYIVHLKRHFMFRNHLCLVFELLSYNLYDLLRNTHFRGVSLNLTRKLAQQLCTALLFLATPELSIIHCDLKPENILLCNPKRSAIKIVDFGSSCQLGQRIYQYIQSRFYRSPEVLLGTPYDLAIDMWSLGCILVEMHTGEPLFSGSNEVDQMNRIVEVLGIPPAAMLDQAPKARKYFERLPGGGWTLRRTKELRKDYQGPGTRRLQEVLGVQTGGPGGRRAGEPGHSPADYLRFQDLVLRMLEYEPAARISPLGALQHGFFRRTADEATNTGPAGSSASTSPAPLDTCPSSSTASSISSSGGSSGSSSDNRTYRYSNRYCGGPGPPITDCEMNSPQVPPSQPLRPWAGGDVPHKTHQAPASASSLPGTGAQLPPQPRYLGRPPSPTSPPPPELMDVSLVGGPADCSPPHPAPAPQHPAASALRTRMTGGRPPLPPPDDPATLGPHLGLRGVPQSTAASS
Mitogen-activated protein kinase 6 (Homo sapiens), sequence (Q16659 whole entry): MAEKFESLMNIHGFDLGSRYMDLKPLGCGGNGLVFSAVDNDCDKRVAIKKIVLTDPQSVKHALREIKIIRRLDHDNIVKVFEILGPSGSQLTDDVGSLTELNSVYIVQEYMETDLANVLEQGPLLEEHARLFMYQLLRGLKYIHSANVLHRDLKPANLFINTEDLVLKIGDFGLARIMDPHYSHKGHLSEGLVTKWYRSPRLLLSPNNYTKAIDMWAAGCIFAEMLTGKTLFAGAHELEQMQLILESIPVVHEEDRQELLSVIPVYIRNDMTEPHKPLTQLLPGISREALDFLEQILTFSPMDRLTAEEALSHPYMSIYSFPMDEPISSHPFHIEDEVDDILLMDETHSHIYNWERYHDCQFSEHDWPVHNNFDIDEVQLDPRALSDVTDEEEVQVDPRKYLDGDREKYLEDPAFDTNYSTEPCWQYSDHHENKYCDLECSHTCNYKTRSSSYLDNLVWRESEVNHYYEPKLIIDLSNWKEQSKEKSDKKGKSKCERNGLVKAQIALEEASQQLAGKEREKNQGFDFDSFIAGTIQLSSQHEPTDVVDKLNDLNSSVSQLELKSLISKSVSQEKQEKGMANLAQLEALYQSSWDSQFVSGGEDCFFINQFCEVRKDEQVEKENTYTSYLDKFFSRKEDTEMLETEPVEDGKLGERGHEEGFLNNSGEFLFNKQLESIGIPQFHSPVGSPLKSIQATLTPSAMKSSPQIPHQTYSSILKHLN
Tyrosine-protein kinase receptor TYRO3 (Homo sapiens), sequence (Q06418 whole entry): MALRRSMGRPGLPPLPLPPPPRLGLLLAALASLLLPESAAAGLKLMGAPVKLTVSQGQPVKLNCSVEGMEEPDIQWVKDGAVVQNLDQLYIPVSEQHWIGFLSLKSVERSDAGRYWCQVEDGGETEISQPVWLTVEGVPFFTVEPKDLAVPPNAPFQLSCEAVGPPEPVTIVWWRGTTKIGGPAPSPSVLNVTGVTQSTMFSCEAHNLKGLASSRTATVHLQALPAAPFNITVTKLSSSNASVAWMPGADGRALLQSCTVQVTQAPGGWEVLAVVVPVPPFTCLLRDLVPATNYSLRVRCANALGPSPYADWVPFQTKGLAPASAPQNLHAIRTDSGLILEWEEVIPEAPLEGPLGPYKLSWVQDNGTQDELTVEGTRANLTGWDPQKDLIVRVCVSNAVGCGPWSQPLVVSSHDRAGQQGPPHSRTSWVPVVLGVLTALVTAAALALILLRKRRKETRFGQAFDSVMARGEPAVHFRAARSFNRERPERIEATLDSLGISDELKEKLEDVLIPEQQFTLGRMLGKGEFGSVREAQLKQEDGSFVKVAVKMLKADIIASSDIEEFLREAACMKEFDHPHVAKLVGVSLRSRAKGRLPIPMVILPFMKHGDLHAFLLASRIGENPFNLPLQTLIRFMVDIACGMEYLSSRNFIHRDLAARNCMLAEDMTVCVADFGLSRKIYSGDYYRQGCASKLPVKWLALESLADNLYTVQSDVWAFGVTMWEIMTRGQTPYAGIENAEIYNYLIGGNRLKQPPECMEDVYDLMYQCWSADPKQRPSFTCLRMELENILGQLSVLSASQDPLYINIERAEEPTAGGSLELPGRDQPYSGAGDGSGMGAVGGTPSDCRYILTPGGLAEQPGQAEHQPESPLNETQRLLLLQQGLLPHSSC
Mitogen-activated protein kinase 10, sequence (P53779 whole entry): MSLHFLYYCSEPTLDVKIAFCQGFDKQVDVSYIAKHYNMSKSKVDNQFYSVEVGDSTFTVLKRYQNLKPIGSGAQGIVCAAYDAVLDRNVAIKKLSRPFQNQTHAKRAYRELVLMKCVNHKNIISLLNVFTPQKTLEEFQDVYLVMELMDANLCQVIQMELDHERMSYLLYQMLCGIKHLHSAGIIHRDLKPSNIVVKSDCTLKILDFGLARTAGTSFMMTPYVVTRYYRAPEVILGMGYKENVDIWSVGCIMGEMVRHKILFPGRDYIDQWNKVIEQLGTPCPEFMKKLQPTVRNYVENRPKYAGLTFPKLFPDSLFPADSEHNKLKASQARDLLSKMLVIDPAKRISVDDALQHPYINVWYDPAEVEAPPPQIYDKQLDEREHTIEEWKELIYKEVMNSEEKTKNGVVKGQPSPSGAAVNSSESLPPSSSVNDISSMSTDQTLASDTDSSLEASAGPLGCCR
NT-3 growth factor receptor, sequence (Q16288 32-839 limits assumed): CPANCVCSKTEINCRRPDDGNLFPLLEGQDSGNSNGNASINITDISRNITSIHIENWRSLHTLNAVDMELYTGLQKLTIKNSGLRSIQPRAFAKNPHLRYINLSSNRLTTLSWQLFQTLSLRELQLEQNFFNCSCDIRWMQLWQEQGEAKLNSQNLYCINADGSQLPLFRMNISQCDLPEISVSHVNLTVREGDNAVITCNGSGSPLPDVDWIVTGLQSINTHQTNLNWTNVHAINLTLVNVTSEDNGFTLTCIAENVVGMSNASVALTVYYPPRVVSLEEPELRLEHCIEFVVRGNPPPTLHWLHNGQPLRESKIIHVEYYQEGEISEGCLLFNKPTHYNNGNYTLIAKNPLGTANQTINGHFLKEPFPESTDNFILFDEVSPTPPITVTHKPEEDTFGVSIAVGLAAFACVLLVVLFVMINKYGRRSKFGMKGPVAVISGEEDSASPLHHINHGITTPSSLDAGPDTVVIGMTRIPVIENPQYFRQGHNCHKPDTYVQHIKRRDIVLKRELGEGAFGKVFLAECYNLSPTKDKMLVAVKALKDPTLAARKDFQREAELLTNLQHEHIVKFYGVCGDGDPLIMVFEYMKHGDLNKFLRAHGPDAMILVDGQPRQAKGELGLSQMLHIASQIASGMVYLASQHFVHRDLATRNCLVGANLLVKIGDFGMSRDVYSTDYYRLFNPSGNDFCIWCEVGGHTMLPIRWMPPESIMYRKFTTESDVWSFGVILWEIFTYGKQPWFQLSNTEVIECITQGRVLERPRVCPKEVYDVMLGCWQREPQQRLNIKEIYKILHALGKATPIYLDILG
Sigma non-opioid intracellular receptor 1, sequence (Q99720 whole entry): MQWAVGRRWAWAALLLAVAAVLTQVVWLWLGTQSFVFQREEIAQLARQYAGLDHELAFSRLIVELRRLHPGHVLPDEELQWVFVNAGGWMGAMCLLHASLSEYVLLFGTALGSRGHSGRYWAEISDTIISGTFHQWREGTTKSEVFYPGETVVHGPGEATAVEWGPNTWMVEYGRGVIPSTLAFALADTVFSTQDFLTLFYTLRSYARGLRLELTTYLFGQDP

Regarding `Clc1cccc(-c2nnnn2Cc2cccnc2)c1Cl`, the % of inhibition in test [1] came out at 43%; in [2] it was 31%; in [5], 32%. Further, in [3], the Ki (usually a dissociation constant, usually derived from enzyme kinetics or from competition with a known ligand) stood at 505 nM. The molecule further registered a % of control in test [4] of 46%.
For `CN(C)[C@@H]1CCN(c2cc(-c3ccccc3)nc3ccnn23)C1` [(R)-ZINC-3573], the Kd (as a rule, a measure of binding affinity in units of concentration) was 19000 nM in test [6], 27000 nM in [7] and greater than 30000 nM in [8].
For the molecule `C[C@@H](c1cccc(C#N)c1)n1cc(Cl)cc(C(N)=O)c1=N`, the IC50 (commonly the concentration at which inhibition is half-maximal) in test [9] was determined as 2700 nM; in test [13], 1200 nM. Moreover, the % of control in test [10] stood at 37%; in test [11], 0%; in test [14] it was 0%; in test [15], 0%; in test [16] it was 0%. Also, the % of inhibition in test [12] turned out to be 61%; in test [17], 55%.
Consider `C[C@@H](c1cccc(CN)c1)n1cc(Cl)cc(C(N)=O)c1=N`, for which the % of control came out at 33% in [18] and 0% in test [19]. Besides, the results for the Ki in [20] and in [23] were greater than 1200 nM and greater than 2700 nM, respectively. Further, the figures for the % of inhibition in test [21] and in test [22] were 80% and 84%, respectively.
